From ChEMBL document CHEMBL5465560, “Selectivity Literature for EUbOPEN Chemogenomic Library” (2024)

Tests used:
[1] = target: T1, 3-phosphoinositide-dependent protein kinase 1 (Homo sapiens) (UniProt O15530); assay: Selectivity interaction (KinomeScan (DiscoverX)) EUB0000666a PDPK1; settings: at 10 µM
T1 sequence (whole entry): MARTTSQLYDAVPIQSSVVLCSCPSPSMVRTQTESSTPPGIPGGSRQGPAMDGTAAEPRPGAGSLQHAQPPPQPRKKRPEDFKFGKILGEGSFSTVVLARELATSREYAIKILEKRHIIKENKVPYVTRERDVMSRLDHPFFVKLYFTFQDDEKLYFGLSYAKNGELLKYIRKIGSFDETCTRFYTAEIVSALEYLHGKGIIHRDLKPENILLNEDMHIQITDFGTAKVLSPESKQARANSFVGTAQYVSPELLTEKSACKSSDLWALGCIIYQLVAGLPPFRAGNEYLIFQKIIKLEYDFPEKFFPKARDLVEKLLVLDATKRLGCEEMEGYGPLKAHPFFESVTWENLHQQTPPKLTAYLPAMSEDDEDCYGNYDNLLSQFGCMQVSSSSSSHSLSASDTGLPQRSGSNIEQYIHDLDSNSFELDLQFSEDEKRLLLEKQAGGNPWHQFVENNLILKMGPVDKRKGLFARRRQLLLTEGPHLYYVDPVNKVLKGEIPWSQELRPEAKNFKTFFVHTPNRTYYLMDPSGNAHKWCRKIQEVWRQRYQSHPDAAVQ

[2] = target: Mitogen-activated protein kinase kinase kinase 4 (Homo sapiens) (UniProt Q9Y6R4); settings: at 10 µM
[3] = target: T2, Ephrin type-A receptor 1 (Homo sapiens) (UniProt P21709); assay: Selectivity interaction (ActivX KiNativ screen (ex vivo kinase selectivity in human PBMCs)) EUB0001619a EPHA1; type: cell-based; settings: PBMC, at 1 µM
T2 sequence (whole entry): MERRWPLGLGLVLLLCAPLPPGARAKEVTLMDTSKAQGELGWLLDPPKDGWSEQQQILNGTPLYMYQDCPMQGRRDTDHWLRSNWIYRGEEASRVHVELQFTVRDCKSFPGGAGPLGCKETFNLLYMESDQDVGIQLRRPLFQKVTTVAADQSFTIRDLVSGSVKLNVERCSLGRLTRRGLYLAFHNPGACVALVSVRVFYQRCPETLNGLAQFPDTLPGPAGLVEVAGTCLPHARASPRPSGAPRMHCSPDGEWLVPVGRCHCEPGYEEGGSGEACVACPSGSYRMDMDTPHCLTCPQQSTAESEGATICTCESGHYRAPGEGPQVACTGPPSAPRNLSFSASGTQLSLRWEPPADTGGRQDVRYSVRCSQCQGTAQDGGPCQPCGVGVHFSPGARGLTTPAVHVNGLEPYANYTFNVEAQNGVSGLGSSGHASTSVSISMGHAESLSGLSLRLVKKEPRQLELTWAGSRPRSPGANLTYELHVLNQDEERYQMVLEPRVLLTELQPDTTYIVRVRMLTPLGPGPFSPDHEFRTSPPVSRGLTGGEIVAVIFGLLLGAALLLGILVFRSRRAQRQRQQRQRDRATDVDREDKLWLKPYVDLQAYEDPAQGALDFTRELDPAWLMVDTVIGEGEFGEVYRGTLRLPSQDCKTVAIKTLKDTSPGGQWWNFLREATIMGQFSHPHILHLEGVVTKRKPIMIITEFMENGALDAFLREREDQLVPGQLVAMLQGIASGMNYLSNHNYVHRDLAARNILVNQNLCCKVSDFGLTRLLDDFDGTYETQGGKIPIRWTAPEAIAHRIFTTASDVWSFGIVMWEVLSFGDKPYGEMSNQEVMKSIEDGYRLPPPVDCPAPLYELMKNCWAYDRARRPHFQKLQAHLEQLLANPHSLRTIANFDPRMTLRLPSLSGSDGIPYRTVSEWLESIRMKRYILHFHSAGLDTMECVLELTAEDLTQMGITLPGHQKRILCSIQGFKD

[4] = target: T3, Serine/threonine-protein kinase D1 (Homo sapiens) (UniProt Q15139); assay: Selectivity interaction (Kinase panel (literature)) EUB0001199aCl PRKD1; settings: at 1 µM
T3 sequence (whole entry): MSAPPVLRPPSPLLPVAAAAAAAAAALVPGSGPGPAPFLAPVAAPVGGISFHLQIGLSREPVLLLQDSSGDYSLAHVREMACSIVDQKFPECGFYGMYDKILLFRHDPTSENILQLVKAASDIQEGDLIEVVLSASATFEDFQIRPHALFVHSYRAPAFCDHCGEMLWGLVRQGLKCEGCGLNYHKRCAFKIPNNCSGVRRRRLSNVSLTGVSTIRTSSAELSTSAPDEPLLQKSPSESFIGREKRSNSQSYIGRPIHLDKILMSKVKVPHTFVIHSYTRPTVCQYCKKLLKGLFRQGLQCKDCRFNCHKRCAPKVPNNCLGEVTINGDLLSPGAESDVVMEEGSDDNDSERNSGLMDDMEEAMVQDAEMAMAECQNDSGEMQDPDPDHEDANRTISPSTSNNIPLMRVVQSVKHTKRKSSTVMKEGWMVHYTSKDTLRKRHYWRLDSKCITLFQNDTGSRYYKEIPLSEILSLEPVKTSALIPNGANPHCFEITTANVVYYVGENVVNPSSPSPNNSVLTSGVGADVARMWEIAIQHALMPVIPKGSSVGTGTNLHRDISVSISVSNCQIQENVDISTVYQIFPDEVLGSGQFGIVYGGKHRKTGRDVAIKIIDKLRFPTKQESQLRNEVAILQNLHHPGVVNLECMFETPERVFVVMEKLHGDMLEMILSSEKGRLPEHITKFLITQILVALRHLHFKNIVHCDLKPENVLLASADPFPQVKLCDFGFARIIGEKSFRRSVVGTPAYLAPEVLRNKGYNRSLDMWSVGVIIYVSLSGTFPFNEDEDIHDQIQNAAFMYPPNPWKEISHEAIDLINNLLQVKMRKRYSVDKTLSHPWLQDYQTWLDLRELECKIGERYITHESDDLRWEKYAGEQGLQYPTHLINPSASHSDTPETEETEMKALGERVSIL

Ephrin type-A receptor 4 = Ephrin type-A receptor 4 (Homo sapiens, UniProt P54764); assay: Selectivity interaction (KinomeScan (DiscoverX)) EUB0000618a EPHA4; settings: at 10 µM
[5] = target: Tyrosine-protein kinase Lck (Homo sapiens, UniProt P06239); assay: Selectivity interaction (KinomeScan (DiscoverX)) EUB0000092b LCK; settings: at 10 µM
[6] = target: Tyrosine-protein kinase Yes (Homo sapiens) (UniProt P07947); assay: Selectivity interaction (Ambit KINOMEscan and KiNATiv profiling in Jurkat cells) EUB0000090b YES1; type: cell-based; settings: at 1 µM
Chain of Tyrosine-protein kinase Yes (Homo sapiens) (P07947 2-543 limits assumed): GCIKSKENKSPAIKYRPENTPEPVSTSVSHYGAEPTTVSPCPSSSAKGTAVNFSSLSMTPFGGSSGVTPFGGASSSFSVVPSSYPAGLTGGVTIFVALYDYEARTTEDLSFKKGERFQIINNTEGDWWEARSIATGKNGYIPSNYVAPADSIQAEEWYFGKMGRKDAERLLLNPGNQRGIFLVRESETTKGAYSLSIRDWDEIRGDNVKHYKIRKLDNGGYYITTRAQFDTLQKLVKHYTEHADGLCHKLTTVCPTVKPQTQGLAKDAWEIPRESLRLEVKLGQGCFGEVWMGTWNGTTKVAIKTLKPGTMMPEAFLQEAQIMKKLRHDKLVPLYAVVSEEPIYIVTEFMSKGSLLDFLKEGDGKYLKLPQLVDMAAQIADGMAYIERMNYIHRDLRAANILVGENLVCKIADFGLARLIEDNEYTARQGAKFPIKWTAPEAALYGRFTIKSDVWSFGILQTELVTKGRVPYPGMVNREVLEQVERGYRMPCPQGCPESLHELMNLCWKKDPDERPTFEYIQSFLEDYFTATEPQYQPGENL

Chain of Mitogen-activated protein kinase kinase kinase 4 (Homo sapiens) (Q9Y6R4 whole entry): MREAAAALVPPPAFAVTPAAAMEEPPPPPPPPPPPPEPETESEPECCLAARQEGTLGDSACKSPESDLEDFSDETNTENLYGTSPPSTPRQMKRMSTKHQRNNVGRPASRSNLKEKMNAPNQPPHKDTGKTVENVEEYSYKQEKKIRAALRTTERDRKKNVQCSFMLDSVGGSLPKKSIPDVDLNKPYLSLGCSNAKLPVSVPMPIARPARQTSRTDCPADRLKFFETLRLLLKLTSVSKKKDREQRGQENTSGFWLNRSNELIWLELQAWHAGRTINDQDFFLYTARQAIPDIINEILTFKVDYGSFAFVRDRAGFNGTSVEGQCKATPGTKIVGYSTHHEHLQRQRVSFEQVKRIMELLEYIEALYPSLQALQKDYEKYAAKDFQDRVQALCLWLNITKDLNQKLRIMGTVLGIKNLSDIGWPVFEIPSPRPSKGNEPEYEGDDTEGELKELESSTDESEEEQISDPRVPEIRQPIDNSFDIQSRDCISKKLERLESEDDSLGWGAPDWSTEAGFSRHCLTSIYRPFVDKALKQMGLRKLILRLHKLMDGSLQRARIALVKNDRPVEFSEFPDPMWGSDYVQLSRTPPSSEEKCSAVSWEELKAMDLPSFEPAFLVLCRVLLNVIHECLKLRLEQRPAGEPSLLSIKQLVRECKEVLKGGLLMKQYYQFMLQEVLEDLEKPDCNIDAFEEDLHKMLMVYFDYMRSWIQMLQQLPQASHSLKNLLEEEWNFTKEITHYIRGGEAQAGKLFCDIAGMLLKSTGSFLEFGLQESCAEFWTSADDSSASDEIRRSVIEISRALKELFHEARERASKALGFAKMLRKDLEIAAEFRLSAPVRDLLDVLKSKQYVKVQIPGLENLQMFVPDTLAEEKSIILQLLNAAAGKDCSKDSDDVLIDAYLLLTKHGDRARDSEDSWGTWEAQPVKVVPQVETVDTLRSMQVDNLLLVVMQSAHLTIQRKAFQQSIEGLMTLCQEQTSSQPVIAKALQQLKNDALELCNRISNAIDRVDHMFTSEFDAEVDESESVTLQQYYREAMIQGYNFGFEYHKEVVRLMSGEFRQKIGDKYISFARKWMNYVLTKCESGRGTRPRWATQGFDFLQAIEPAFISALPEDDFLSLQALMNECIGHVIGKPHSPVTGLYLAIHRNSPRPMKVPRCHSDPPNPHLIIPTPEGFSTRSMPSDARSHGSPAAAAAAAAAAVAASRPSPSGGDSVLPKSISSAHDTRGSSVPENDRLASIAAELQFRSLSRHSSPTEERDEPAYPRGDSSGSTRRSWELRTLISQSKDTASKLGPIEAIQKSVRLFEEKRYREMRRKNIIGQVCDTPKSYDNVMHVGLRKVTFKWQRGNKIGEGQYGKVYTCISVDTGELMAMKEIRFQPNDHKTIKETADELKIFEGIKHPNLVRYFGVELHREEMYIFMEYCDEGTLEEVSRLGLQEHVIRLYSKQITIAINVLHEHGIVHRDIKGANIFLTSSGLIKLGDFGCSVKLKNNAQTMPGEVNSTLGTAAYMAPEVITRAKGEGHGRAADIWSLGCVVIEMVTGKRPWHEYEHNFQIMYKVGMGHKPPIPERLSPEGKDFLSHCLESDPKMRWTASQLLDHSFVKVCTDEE
Chain of Tyrosine-protein kinase Lck (P06239 2-509 limits assumed): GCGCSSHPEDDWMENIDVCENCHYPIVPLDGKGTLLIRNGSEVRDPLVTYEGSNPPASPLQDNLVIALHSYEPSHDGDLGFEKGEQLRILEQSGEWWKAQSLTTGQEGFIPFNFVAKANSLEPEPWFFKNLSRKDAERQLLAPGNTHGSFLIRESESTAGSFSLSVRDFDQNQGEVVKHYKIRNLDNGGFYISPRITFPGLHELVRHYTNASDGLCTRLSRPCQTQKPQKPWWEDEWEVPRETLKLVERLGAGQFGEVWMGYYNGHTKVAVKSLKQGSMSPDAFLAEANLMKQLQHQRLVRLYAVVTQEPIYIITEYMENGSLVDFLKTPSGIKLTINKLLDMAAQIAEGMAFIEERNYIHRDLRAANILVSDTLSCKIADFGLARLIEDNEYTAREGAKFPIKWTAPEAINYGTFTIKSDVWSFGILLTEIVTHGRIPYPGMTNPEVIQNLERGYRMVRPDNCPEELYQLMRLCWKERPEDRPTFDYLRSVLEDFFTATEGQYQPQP
Chain of Ephrin type-A receptor 4 (P54764 whole entry): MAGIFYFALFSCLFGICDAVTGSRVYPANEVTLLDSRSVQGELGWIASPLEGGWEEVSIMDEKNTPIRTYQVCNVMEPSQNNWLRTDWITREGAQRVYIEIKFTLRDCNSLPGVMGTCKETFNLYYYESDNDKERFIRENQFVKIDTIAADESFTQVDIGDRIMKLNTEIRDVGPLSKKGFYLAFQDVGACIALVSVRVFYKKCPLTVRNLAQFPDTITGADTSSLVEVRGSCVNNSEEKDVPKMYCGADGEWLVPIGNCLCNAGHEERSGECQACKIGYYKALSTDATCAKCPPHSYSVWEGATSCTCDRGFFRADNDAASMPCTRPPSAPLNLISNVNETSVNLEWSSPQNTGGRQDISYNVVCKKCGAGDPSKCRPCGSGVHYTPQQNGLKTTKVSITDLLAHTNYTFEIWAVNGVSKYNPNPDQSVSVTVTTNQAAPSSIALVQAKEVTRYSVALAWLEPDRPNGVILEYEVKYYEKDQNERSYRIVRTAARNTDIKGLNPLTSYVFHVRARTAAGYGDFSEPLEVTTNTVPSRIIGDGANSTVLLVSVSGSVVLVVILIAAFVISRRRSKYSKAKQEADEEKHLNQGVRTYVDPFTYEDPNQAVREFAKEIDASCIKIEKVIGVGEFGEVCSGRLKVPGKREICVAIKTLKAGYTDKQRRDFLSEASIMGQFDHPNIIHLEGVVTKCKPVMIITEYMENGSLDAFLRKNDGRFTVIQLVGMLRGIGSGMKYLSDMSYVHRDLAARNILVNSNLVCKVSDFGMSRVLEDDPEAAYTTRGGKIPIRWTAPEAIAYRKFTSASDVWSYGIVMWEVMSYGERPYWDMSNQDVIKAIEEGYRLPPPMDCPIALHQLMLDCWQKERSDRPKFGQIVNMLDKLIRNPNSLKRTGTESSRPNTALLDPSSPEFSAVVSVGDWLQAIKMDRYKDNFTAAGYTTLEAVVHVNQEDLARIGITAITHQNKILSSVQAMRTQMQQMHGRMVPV

Compound: O=C(NOC[C@H](O)CO)c1ccc(F)c(F)c1Nc1ccc(I)cc1F
- % of control [1]: 71%

Compound: Cc1cc([C@@H](C)Nc2ccccc2C(=O)O)c2nc(N3CCOCC3)cc(=O)n2c1 [AZD-6482]
- % of control [2]: 100%

Compound: N#Cc1cccc(-c2c[nH]c3ncnc(N4CCOCC4)c23)c1
- % of inhibition [3]: -3%

Compound: CN1Cc2nccc(-c3cn(C)nc3-c3ccc(F)cc3)c2C1=O
- % of inhibition [4]: -11%

Compound: O[C@H]1CC[C@H](Nc2ncc3nc(Nc4c(F)cc(F)cc4F)n([C@H]4CCOC4)c3n2)CC1
- % of control (Ephrin type-A receptor 4): 93%

Compound: CCC(=O)N1CCN(c2ccc(-n3c(=O)ccc4cnc5ccc(-c6cnc7ccccc7c6)cc5c43)cc2C(F)(F)F)CC1
- % of control [5]: 77%

Compound: CN(C)C/C=C/C(=O)Nc1ccc(C(=O)N2CCCC(Nc3ncc(Cl)c(-c4c[nH]c5ccccc45)n3)C2)cc1 (configuration not stated)
- % of control [6]: 94%
